Results as given in US12139499B2, “Heteroaryl compounds for treating Huntington's disease” (PTC THERAPEUTICS, INC., priority 2018, dated 2024).

Test system: Endogenous Huntingtin Protein
Assay: Endogenous Huntingtin Protein Assay (ELISA-based MSD electrochemiluminescence)
Type: cell-based
Conditions: Table 1
Summary of the method: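 Huntingtin was captured overnight at 4 °C on plates coated with 1 μg/mL MW1 (polyQ-expanded) or MAB2166 antibody and BSA-blocked. Detection used a rabbit monoclonal and then a SULFO-TAG goat anti-rabbit antibody (0.25 μg/mL, 1 h each, room temperature). Signal was read by electrochemiluminescence.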

Row | SMILES | IC50
1 | CN(c1nc2cnc(-c3cc(F)c4nn(C)cc4c3)cc2s1)C1CC(C)(C)NC(C)(C)C1 [Compound 86, 6-(7-fluoro-2-methyl-2H-indazol-5-yl)-N-methyl-N-(2,2,6,6-tetramethylpiperidin-4-yl)[1,3]thiazolo[4,5-c]pyridin-2-amine] | ≤ 100 nM
2 | Cc1cn2cc(-c3cc4sc(N(C)C5CC(C)(C)NC(C)(C)C5)nc4cn3)ccc2n1 [Compound 87, N-methyl-6-(2-methylimidazo[1,2-a]pyridin-6-yl)-N-(2,2,6,6-tetramethylpiperidin-4-yl)[1,3]thiazolo[4,5-c]pyridin-2-amine] | ≤ 100 nM
3 | Cc1cn2cc(-c3cc4sc(N(C)C5CC(C)(C)NC(C)(C)C5)nc4cn3)cc(C)c2n1 [Compound 88, 6-(2,8-dimethylimidazo[1,2-a]pyridin-6-yl)-N-methyl-N-(2,2,6,6-tetramethylpiperidin-4-yl)[1,3]thiazolo[4,5-c]pyridin-2-amine] | ≤ 100 nM
4 | Cc1cn2nc(-c3cc4sc(N(C)C5CC(C)(C)NC(C)(C)C5)nc4cn3)ccc2n1 [Compound 89, N-methyl-6-(2-methylimidazo[1,2-b]pyridazin-6-yl)-N-(2,2,6,6-tetramethylpiperidin-4-yl)[1,3]thiazolo[4,5-c]pyridin-2-amine] | 500 to 1000 nM
5 | Cc1cn2nc(-c3cc4sc(N(C)C5CC(C)(C)NC(C)(C)C5)nc4cn3)cc(C)c2n1 [Compound 90, 6-(2,8-dimethylimidazo[1,2-b]pyridazin-6-yl)-N-methyl-N-(2,2,6,6-tetramethylpiperidin-4-yl)[1,3]thiazolo[4,5-c]pyridin-2-amine] | 100 to 500 nM
6 | CN(c1nc2c(F)cc(-c3cc(C#N)c4nn(C)cc4c3)cc2s1)C1CC(C)(C)NC(C)(C)C1 [Compound 91, 5-{4-fluoro-2-[methyl(2,2,6,6-tetramethylpiperidin-4-yl)amino]-1,3-benzothiazol-6-yl}-2-methyl-2H-indazole-7-carbonitrile] | ≤ 100 nM
7 | Cc1cn2nc(-c3cc(F)c4nc(C5CCN(C)CC5)sc4c3)ccc2n1 [Compound 92, 6-[4-fluoro-2-(1-methylpiperidin-4-yl)-1,3-benzothiazol-6-yl]-2-methylimidazo[1,2-b]pyridazine] | ≤ 100 nM
8 | CCc1cc(-c2ccc3nc(N(C)C4CC(C)(C)NC(C)(C)C4)sc3c2)cn2cc(C)nc12 [Compound 93, 6-(8-ethyl-2-methylimidazo[1,2-a]pyridin-6-yl)-N-methyl-N-(2,2,6,6-tetramethylpiperidin-4-yl)-1,3-benzothiazol-2-amine] | 100 to 500 nM
9 | Cc1nc2c(C)cc(-c3ccc4nc(C5CCNCC5)sc4c3)cc2[nH]1 [Compound 94, 6-(2,4-dimethyl-1H-benzimidazol-6-yl)-2-(piperidin-4-yl)-1,3-benzothiazole] | ≤ 100 nM
10 | Cc1nc2ccc(-c3ccc4nc(C5CCNCC5)sc4c3)cc2[nH]1 [Compound 95, 6-(2-methyl-1H-benzimidazol-6-yl)-2-(piperidin-4-yl)-1,3-benzothiazole] | 100 to 500 nM
11 | Cc1cn2cc(-c3ccc4nc(N(C)C5CC(C)(C)NC(C)(C)C5)sc4c3)cc(C(F)(F)F)c2n1 [Compound 96, N-methyl-6-[2-methyl-8-(trifluoromethyl)imidazo[1,2-a]pyridin-6-yl]-N-(2,2,6,6-tetramethylpiperidin-4-yl)-1,3-benzothiazol-2-amine] | 100 to 500 nM
12 | Cc1cn2nc(-c3ccc4nc(C5CCNCC5)sc4c3)ccc2n1 [Compound 97, 2-methyl-6-[2-(piperidin-4-yl)-1,3-benzothiazol-6-yl]imidazo[1,2-b]pyridazine] | ≤ 100 nM
13 | COc1cc(-c2cc(C)c3nn(C)cc3c2)cc2sc(C3=CCNCC3)nc12 [Compound 98, 6-(2,7-dimethyl-2H-indazol-5-yl)-4-methoxy-2-(1,2,3,6-tetrahydropyridin-4-yl)-1,3-benzothiazole] | 100 to 500 nM
14 | COc1cc(-c2cc(C)c3nn(C)cc3c2)cc2sc(C3CCNCC3)nc12 [Compound 99, 6-(2,7-dimethyl-2H-indazol-5-yl)-4-methoxy-2-(piperidin-4-yl)-1,3-benzothiazole] | 1000 to 3000 nM
15 | Cc1cc(-c2cc(O)c3nc(C4=CCNCC4)sc3c2)cc2cn(C)nc12 [Compound 100, 6-(2,7-dimethyl-2H-indazol-5-yl)-2-(1,2,3,6-tetrahydropyridin-4-yl)-1,3-benzothiazol-4-ol] | 500 to 1000 nM
16 | Cc1cc(-c2ncc3nc(N(C)C4CC(C)(C)NC(C)(C)C4)sc3c2F)cc2cn(C)nc12 [Compound 101, 6-(2,7-dimethyl-2H-indazol-5-yl)-7-fluoro-N-methyl-N-(2,2,6,6-tetramethylpiperidin-4-yl)[1,3]thiazolo[4,5-c]pyridin-2-amine] | 100 to 500 nM
17 | Cn1cc2cc(-c3cc(F)c4nc(C5=CCNCC5)sc4c3)cc(C#N)c2n1 [Compound 102, 5-[4-fluoro-2-(1,2,3,6-tetrahydropyridin-4-yl)-1,3-benzothiazol-6-yl]-2-methyl-2H-indazole-7-carbonitrile] | ≤ 100 nM
18 | Cn1cc2cc(-c3cc(F)c4nc(C5CCNCC5)sc4c3)cc(CN)c2n1 [Compound 103, 1-{5-[4-fluoro-2-(piperidin-4-yl)-1,3-benzothiazol-6-yl]-2-methyl-2H-indazol-7-yl}methanamine] | ≤ 100 nM

Row | SMILES | IC50
19 | Cn1cc2cc(-c3cc(F)c4nc(C5CCNCC5)sc4c3)cc(C#N)c2n1 [Compound 104, 5-[4-fluoro-2-(piperidin-4-yl)-1,3-benzothiazol-6-yl]-2-methyl-2H-indazole-7-carbonitrile] | ≤ 100 nM
20 | Cc1cn2cc(-c3cc4sc(N(C)C5CC(C)(C)NC(C)(C)C5)nc4cn3)cnc2n1 [Compound 105, N-methyl-6-(2-methylimidazo[1,2-a]pyrimidin-6-yl)-N-(2,2,6,6-tetramethylpiperidin-4-yl)[1,3]thiazolo[4,5-c]pyridin-2-amine] | 100 to 500 nM
21 | CCN1CCC(c2nc3c(F)cc(-c4ccc5nc(C)cn5n4)cc3s2)CC1 [Compound 106, 6-[2-(1-ethylpiperidin-4-yl)-4-fluoro-1,3-benzothiazol-6-yl]-2-methylimidazo[1,2-b]pyridazine] | ≤ 100 nM
22 | Cc1cn2nc(-c3cc(F)c4nc(C5CCN(C)CC5)sc4c3)cc(C)c2n1 [Compound 107, 6-[4-fluoro-2-(1-methylpiperidin-4-yl)-1,3-benzothiazol-6-yl]-2,8-dimethylimidazo[1,2-b]pyridazine] | ≤ 100 nM
23 | Cc1cc(-c2ccc3nc(N(C)C4CCN(C)C(C)C4)sc3c2)cc2cn(C)nc12 (stereo not drawn) [Compound 108, 6-(2,7-dimethyl-2H-indazol-5-yl)-N-(1,2-dimethylpiperidin-4-yl)-N-methyl-1,3-benzothiazol-2-amine] | 500 to 1000 nM
24 | Cn1cc2cc(-c3ncc4nc(C5CCNCC5)sc4n3)cc(C#N)c2n1 [Compound 109, 2-methyl-5-[2-(piperidin-4-yl)[1,3]thiazolo[5,4-d]pyrimidin-5-yl]-2H-indazole-7-carbonitrile] | 100 to 500 nM
25 | Cc1cc(-c2ncc3nc(C4CCNCC4)sc3n2)cc2cn(C)nc12 [Compound 110, 5-(2,7-dimethyl-2H-indazol-5-yl)-2-(piperidin-4-yl)[1,3]thiazolo[5,4-d]pyrimidine] | 100 to 500 nM
26 | Cc1cn2cc(-c3ccc4nc(N(C)C5CC(C)(C)NC(C)(C)C5)sc4c3)cc(F)c2n1 [Compound 111, 6-(8-fluoro-2-methylimidazo[1,2-a]pyridin-6-yl)-N-methyl-N-(2,2,6,6-tetramethylpiperidin-4-yl)-1,3-benzothiazol-2-amine] | ≤ 100 nM
27 | Cc1nc2ccc(-c3ccc4nc(C5CCNCC5)sc4c3)cc2o1 [Compound 112, 2-methyl-6-[2-(piperidin-4-yl)-1,3-benzothiazol-6-yl]-1,3-benzoxazole] | 100 to 500 nM
28 | Cc1cn2cc(-c3ccc4nc(C5CCNCC5)sc4c3)cc(F)c2n1 [Compound 113, 6-(8-fluoro-2-methylimidazo[1,2-a]pyridin-6-yl)-2-(piperidin-4-yl)-1,3-benzothiazole] | ≤ 100 nM
29 | Cc1cn2cc(-c3ccc4nc(C5CCNCC5)sc4c3)cc(C)c2n1 [Compound 114, 6-(2,8-dimethylimidazo[1,2-a]pyridin-6-yl)-2-(piperidin-4-yl)-1,3-benzothiazole] | ≤ 100 nM
30 | Cn1cc2cc(-c3ccc4nc(C5CCNC(C)(C)C5)sc4c3)ccc2n1 (stereo not drawn) [Compound 115, 2-(2,2-dimethylpiperidin-4-yl)-6-(2-methyl-2H-indazol-5-yl)-1,3-benzothiazole] | 500 to 1000 nM
31 | Cc1cn2cc(-c3cc4sc(N(C)C5CC(C)(C)NC(C)(C)C5)nc4cn3)cc(C(F)(F)F)c2n1 [Compound 116, N-methyl-6-[2-methyl-8-(trifluoromethyl)imidazo[1,2-a]pyridin-6-yl]-N-(2,2,6,6-tetramethylpiperidin-4-yl)[1,3]thiazolo[4,5-c]pyridin-2-amine] | 100 to 500 nM
32 | CN(c1nc2cnc(-c3cc(C#N)c4nn(C)cc4c3)cc2s1)C1CC(C)(C)NC(C)(C)C1 [Compound 117, 2-methyl-5-{2-[methyl(2,2,6,6-tetramethylpiperidin-4-yl)amino][1,3]thiazolo[4,5-c]pyridin-6-yl}-2H-indazole-7-carbonitrile] | ≤ 100 nM
33 | Cc1cc(-c2cc3sc(N(C)C4CC(C)(C)NC(C)(C)C4)nc3nn2)cc2cn(C)nc12 [Compound 118, 3-(2,7-dimethyl-2H-indazol-5-yl)-N-methyl-N-(2,2,6,6-tetramethylpiperidin-4-yl)[1,3]thiazolo[4,5-c]pyridazin-6-amine] | 100 to 500 nM
34 | CN(c1nc2nnc(-c3ccc(-c4cn[nH]c4)cc3O)cc2s1)C1CC(C)(C)NC(C)(C)C1 [Compound 119, 2-{6-[methyl(2,2,6,6-tetramethylpiperidin-4-yl)amino][1,3]thiazolo[4,5-c]pyridazin-3-yl}-5-(1H-pyrazol-4-yl)phenol] | ≤ 100 nM
35 | Cc1cn2nc(-c3cc(F)c4nc(N5CCNCC5)sc4c3)cc(C)c2n1 [Compound 120, 6-[4-fluoro-2-(piperazin-1-yl)-1,3-benzothiazol-6-yl]-2,8-dimethylimidazo[1,2-b]pyridazine] | ≤ 100 nM
36 | Cc1cn2nc(-c3cc(F)c4nc(N5CCCNCC5)sc4c3)cc(C)c2n1 [Compound 121, 6-[2-(1,4-diazepan-1-yl)-4-fluoro-1,3-benzothiazol-6-yl]-2,8-dimethylimidazo[1,2-b]pyridazine] | ≤ 100 nM
